Measured values reported in publication PMC6463023, “Epigenetic Changes at the Birc5 Promoter Induced by YM155 in Synovial Sarcoma” (Journal of Clinical Medicine, 2019).

Assays:
[1] = system: Yamato human synovial sarcoma cell line; assay: MTT viability assay, Yamato cells, 48 h; type: cell-based; details: 48 h treatment
Method: (§1) The human SYO-1, Yamato, and HS-SY-II cell lines were received from Torsten Nielsen at the University of British Columbia. The MoJo cell line was developed as previously described from a consented patient’s synovial sarcoma. Each was maintained in Dulbecco’s modified Eagle medium (DMEM) with 10% fetal bovine serum (FBS) and tested for mycoplasma using MycoAlert Plus (Lonza, Walkersville, MD, USA) every 6 months. Cells were seeded in a 96-well tissue culture dish at 1 × 10^4 cells per well. Twenty-four hours after seeding, serial dilutions of YM155 were applied so that the final concentration ranged from 10 μM to 1 nM. Between 24 to 48 h, MTT at 5 mg/mL was applied, and the cells were allowed to incubate at 37 °C and 5% CO2 for 2.5 h. Formazan crystals were resolubilized in 10% SDS and 0.01 M HCl. Absorbance was measured at 570 nm and normalized to 650 nm. Caspase activity was measured using the Caspase-Glo 3/7 and Caspase-Glo 8 (Promega, G8090, and G8200) assay systems. The manufacturer’s instructions were followed for a 96-well plate assay.

[2] = system: Mojo human synovial sarcoma cell line; assay: MTT viability assay, MoJo cells, 48 h; type: cell-based; details: 48 h treatment
Method: as §1

[3] = system: SYO-1 human synovial sarcoma cell line; assay: MTT viability assay, SYO-1 cells, 48 h; type: cell-based; details: 48 h treatment
Method: as §1

[4] = system: HS-SY-II human synovial sarcoma cell line; assay: MTT viability assay, HS-SY-II cells, 24 h; type: cell-based; details: 24 h viability assay
Method: as §1

[5] = system: synovial sarcomas expressing Rosa26-LSL-SS18-SSX2; assay: Tumor growth in genetically engineered mouse model of synovial sarcoma; type: in vivo
Method: Mouse experiments were conducted with the approval of the University of Utah’s Institutional Animal Care Committee in accordance with legal and ethical standards established by the National Research Council and published in the Guide for the Care and Use of Laboratory Animals (protocol # 14-01016). The previously described Rosa26-LSL-SS18-SSX2 mice were maintained on a mixed strain background, C57BL/6 and SvJ. Mice were genotyped with the following primers: Rosa26-LSL-SS18-SSX2 (F flox-[…], F wt–[…]-TGG, R-[…]). TATCre was dosed by 10 μL intramuscular injections at 50 μM at 1 month of age.
(§2) Mice had tumors initiated at 1 month of age. Tumors developed for the next 6 months allowing tumor volumes to reach 500–1000 mm^3. Mice were then subjected to daily intraperitoneal injections of 20 mg/kg of YM155 for 11 days. One mouse with bilateral tumors was censored at day 7. Tumors were measured using digital calipers and volumes were calculated using the equation (L∗W^2)/2. A small portion of the tumor was fixed in 4% paraformaldehyde overnight and then embedded in paraffin. The rest of the tumor was flash frozen in liquid nitrogen and stored at −80 °C until further use.
The control mice group with tumor was compared to the YM155 treated tumor group in a single factor ANOVA statistical test. For most comparisons between control and YM155 treated synovial sarcomas, Student’s t-tests were performed.

[6] = Body weight of mice during YM155 treatment; type: in vivo, mouse; details: 20 mg/kg daily for 11 days
Method: as §2

[7] = system: survivin; assay: Survivin immunoblot of treated mouse synovial sarcomas; type: in vivo; details: mouse sarcomas after 11 days of YM155; p = 0.034
Method: as §2
(§3) Protein was isolated from cells or tissues by incubating in a mild lysis buffer (10 mM Tris-HCl pH 8.1, 10 mM NaCl, 0.5% NP-40, and proteinase inhibitors). The fractions were clarified at 14,000 rpm for 10 min before loading 25–50 μg/sample for gel electrophoresis and transfer to PVDF membrane. Western blots were probed with the following primary antibodies: anti-Survivin (Cell Signaling Technology, 2808, 1:1000), anti-NFκB/p65 (Cell Signaling Technology, 8242, 1:800) anti-GAPDH (Proteintech, 10494-1-AP, 1:1000). The immunoblots were probed secondarily with goat anti-rabbit antibodies conjugated with horse radish peroxidase and bands were detected using Bio-Rad Gel Doc MP imaging station.

[8] = system: caspase 3/7; assay: Caspase-Glo 3/7 activity in HS-SY-II cells; type: cell-based, human; details: 24 h incubation
Method: (§4) Cells were seeded in a 96-well tissue culture dish at 1 × 10^4 cells per well. Twenty-four hours after seeding, serial dilutions of YM155 were applied so that the final concentration ranged from 10 μM to 1 nM. Between 24 to 48 h, MTT at 5 mg/mL was applied, and the cells were allowed to incubate at 37 °C and 5% CO2 for 2.5 h. Formazan crystals were resolubilized in 10% SDS and 0.01 M HCl. Absorbance was measured at 570 nm and normalized to 650 nm. Caspase activity was measured using the Caspase-Glo 3/7 and Caspase-Glo 8 (Promega, G8090, and G8200) assay systems. The manufacturer’s instructions were followed for a 96-well plate assay.

[9] = system: caspase 8; assay: Caspase-Glo 8 activity in HS-SY-II cells; type: cell-based, human; details: 24 h incubation
Method: as §4

[10] = system: BIRC5; assay: BIRC5 transcript level by PCR normalized to GAPDH; type: cell-based, human; details: HS-SY-II, 24 h, normalized to GAPDH mRNA; p = 0.0006
[11] = system: BIRC5 promoter; assay: ChIP-qPCR of histone marks at the BIRC5 promoter in HS-SY-II cells; type: cell-based, human; details: 0.2 μM YM155, 24 h, vs controls
Method: (§5) Mouse tumors were pulverized in a Covaris tissueTUBE attached to a Covaris glass tube (13 × 65 mm) using a hammer and an aluminum block on dry ice. Samples were intermittently placed in liquid nitrogen to maintain molecular interactions. The powderized tissue was resuspended in PBS + protease inhibitors (Sigma, 11836153001, St. Louis, MO, USA) and fixed in 1% formaldehyde for 10 min at room temperature. The cross linking was quenched by adding 125 mM glycine. Samples were washed three times using cold PBS and cold centrifugation at 1000× g for 5 min. Similarly, cells can be fixed in 1% formaldehyde and washed while cells are still adherent to the bottom of the tissue culture dish. Cells in both cases were lysed using cold Farnham cell lysis buffer (5mM PIPES pH 8.0, 85 mM KCl, 0.5% NP-40) with protease inhibitors by incubating on ice for 10 min. Cells were collected and dounced with a glass tube and rod 20 times with a loose rod and 10 times with a tight rod. Samples were filtered through 70 μm filter and centrifuged at 1000× g for 10 min. The supernatant was removed and 1 mL of RIPA lysis buffer (1% NP-40, 0.5% Na deoxycholate, 0.1% SDS/PBS) was added for every 300 mg of tissue or 1 × 10^7 cells and incubated on ice for 10 min. Sonication proceeded in the following manner: 1 mL aliquots were sonicated with a 30 s on and 30 s off cycle for 8 cycles totaling 4 min of sonication time. Sonicated samples were centrifuged at 1400 rpm for 5 min and the supernatant was kept for chromatin immunoprecipitation.
Dynabeads (Invitrogen, 11204D, Carlsbad, CA, USA) were washed in 0.5 mg/mL BSA/PBS three times on a magnet. Sonicated samples were precleared with 30 μL of beads for 1 h at 4 °C. After preclearing, 50 μL of the sample was set aside as the input DNA. Supernatants were transferred to a new tube and 5 μg of primary antibodies were added and incubated overnight at 4 °C. The following antibodies were used for immunoprecipitation. […]

[12] = system: Birc5 promoter; assay: ChIP-qPCR of histone marks at the Birc5 promoter in treated mouse synovial sarcomas; type: in vivo; details: mouse synovial sarcomas treated 11 days, vs controls
Method: as §2
Mouse tumors were pulverized in a Covaris tissueTUBE attached to a Covaris glass tube (13 × 65 mm) using a hammer and an aluminum block on dry ice. Samples were intermittently placed in liquid nitrogen to maintain molecular interactions. The powderized tissue was resuspended in PBS + protease inhibitors (Sigma, 11836153001, St. Louis, MO, USA) and fixed in 1% formaldehyde for 10 min at room temperature. The cross linking was quenched by adding 125 mM glycine. Samples were washed three times using cold PBS and cold centrifugation at 1000× g for 5 min. Similarly, cells can be fixed in 1% formaldehyde and washed while cells are still adherent to the bottom of the tissue culture dish. […]

[13] = system: NFκB; assay: NFκB immunoblot of treated mouse synovial sarcomas; type: in vivo; details: mouse sarcomas after 11 days of YM155; p = 0.015
Method: as §2, §3

[14] = system: NFκB binding to the BIRC5 promoter; assay: ChIP-qPCR for NFκB at the BIRC5 promoter in HS-SY-II cells; type: cell-based, human; details: 0.2 μM YM155, 24 h, vs control, p = 0.32
Method: as §5, with “Sonicated samples were centrifuged at 1400 rpm for 5 min and the supernatant was kept for chromatin immunoprecipitation.” left out

[15] = system: synovial sarcoma; assay: YM155 in combination with BCL2 inhibitors
[16] = set-up: method as in PMID 18824702; details: patients, clinical trials; cited from earlier work
[17] = system: survivin; set-up: method as in PMID 20816704; details: cited from earlier work

Compound: COCCn1c2c([n+](Cc3cnccn3)c1C)C(=O)c1ccccc1C2=O [YM155, sepantronium bromide]
- EC50 [1]: 22 nM
- EC50 [2]: 62 nM
- EC50 [3]: 103 nM
- EC50 [4]: 2640 ± 140 nM
- decrease of tumor growth (mean) over 11 days ([5]; 20 mg/kg daily intraperitoneal for 11 days, control tumors 1.78-fold increase, p = 0.028): 17%
- reduction in tumor volume compared to control treated mice ([5]; treated mice with synovial sarcoma): 50%
- weight loss in treated mice [6]: no detectable weight loss
- survivin protein level (immunoblot, normalized to GAPDH) [7]: striking decrease
- caspase 3/7 activity [8]: increased with higher concentrations
- caspase 8 activity [9]: increased with higher concentrations
- reduction in normalized BIRC5 expression [10]: 39.5%
- H3K4me1 at the BIRC5 promoter (ChIP-qPCR) [11]: a decrease
- H3K27ac at the Birc5 promoter (ChIP-qPCR) [11]: elevated levels
- H3K27me3 at the Birc5 promoter (ChIP-qPCR) [11]: elevated levels
- H3K27me3 at the Birc5 promoter (ChIP-qPCR) ([12]; p = 0.045): elevated levels
- H3K27ac at the Birc5 promoter (ChIP-qPCR) ([12]; p = 0.14): elevated levels
- NFκB protein level (immunoblot, normalized to GAPDH) [13]: striking increase
- binding of NFκB to the BIRC5 promoter (ChIP-qPCR) [14]: unable to detect a difference
- synergy of combination with BCL2 inhibitors [15]: minimally synergistic
- dose associated with adverse events [16]: above 4.8 mg/m^2/day

Compound: Cc1ccc(S(=O)(=O)/C=C/C#N)cc1 [BAY 11-7082]
- survivin levels upon inhibition of NFκB [17]: decrease in survivin levels
